From patent US6818413B2, “Fluorescence-based high throughput screening assays for protein kinases and phosphatases” (Pharmacia and Upjohn Company, priority 1997, dated 2004)

Target: MBL Monoclonal anti-phosphotyrosine antibody (clone 6D12)
Experiment: Competitive displacement of P-Tyr-F from MBL antibody, fluorescence quenching
Type: binding
Settings: displacement of P-Tyr-F 1.7 nM from MBL antibody 7.1 nM sites, nM sites (normality), read-out: MBL Monoclonal Kd, nM Φ
Procedure: FIGS. 5A and 5B: […] MBL antibody, 7.1 nM sites and P-Tyr-F, 1.7 nM were preincubated, and displacement initiated by the addition of a concentrated solution of phosphotyrosine. The increase in emission intensity and decrease in FP were monitored as a function of added phosphoryltyrosine. The data were analyzed as described in FIG. 3. FIGS. 7A, 7B, 7C, and 7D: FIGS. 7A, 7B, 7C, and 7D are graphs showing the competitive displacement of P-Tyr-F from MBL antibody by phosphorylated JAK-2 peptide substrates JAK-2(a) (FIGS. 7A and 7B) and JAK-2(b) (FIGS. 7C and 7D). All procedures were as described in FIG. 5. For both peptides, fixed antibody=7.1 nM sites and P-Tyr-F=1.7 nM. Antibody binding to the fluoresceinated phosphorylamino acids was monitored by adding successive small volumes of the antibody stock solution to a cuvette containing a fixed amount of fluoresceinated phosphorylamino acid in two milliliters of pH 7.4 buffer (25 mM Tris and 25 mM NaCl adjusted to pH 7.4 with HCl). The fluorescence polarization, anisotropy, and the intensity—the sum of vertically and horizontally polarized emissions—were recorded one minute after each addition. The dilution produced by the addition of the antibody necessitated a slight correction for both the concentrations and the intensity readings but not for the polarization since the latter is independent of the fluorophore concentration. […]

Kd: 5.4 ± 0.5 nM
Compound: NC(Cc1ccc(OP(=O)(O)O)cc1)C(=O)O (stereo not shown) [Phosphoryltyrosine]
